| melting point | Compound |
| --- | --- |
| 206 °C | Cc1ccc(-c2nc(C(F)(F)F)cn2-c2ccc(S(C)(=O)=O)cc2)cc1Cl [Example 16, 2-(3-Chloro-4-methylphenyl)-1-[4-(methylsulfonyl)phenyl]-4-(trifluoromethyl)-1H-imidazole] |
| 197 °C | CS(=O)(=O)c1ccc(-n2cc(C(F)(F)F)nc2-c2ccncc2)cc1 [Example 30, 4-[1-[4-(Methyloulfonyl)phenyl]-4-trifluoromethyl-1H-imidazol-2-yl]pyridine] |
| 165 °C | CS(=O)(=O)c1ccc(-n2cc(C(F)(F)F)nc2-c2ccc3c(c2)OCO3)cc1 [Example 17, 5-[1-[4-(Methylsulfonyl)phenyl]-4-(trifluoromethyl)-1H-imidazol-2-yl]-1,3-benzodioxole] |

More lines, now with the values behind:

| Compound | melting point |
| --- | --- |
| Cc1ccccc1SCc1cn(-c2ccc(S(C)(=O)=O)cc2)c(-c2ccc(Cl)cc2)n1 [Example 171, 2-(4-Chlorophenyl)-4-[[(2-methylphenyl)thio]methyl]-1-[4-(methylsulfonyl)phenyl]-1H-imidazole] | 51 °C |
| CS(=O)(=O)c1ccc(-n2cc(-c3ccc(F)cc3)nc2-c2ccc(Cl)cc2)cc1 [Example 7, 2-(4-Chlorophenyl)-4-(4-fluorophenyl)-1-[4-(methyloulfonyl)phenyl]-1H-imidazole] | 180 °C |
| CS(=O)(=O)c1ccc(C2=NC(O)(C(F)(F)F)CN2c2ccc(F)cc2)cc1 (stereo not shown) [Example 3, 1-(4-Fluorophenyl)-4-hydroxy-2-[4-(methyloulfonyl)phenyl]-4-(trifluoromethyl)-4,5-dihydro-1H-imidazole] | 209 °C |
| CS(=O)(=O)c1ccc(-n2cc(C(F)(F)F)nc2-c2ccccn2)cc1 [Example 29, 2-[1-[4-(Methylsulfonyl)phenyl]-4-trifluoromethyl-1H-imidazol-2-yl]pyridine] | 184 °C |

— patent publication US7220770B2, “Heterocyclo-substituted imidazoles for the treatment of inflammation” (priority 1994, dated 2007)
